Assay results published in ChEMBL document CHEMBL1201862, “PubChem BioAssay data set” (2004).
The source made the active and inactive calls.

Experiments:
[1] = Fluorescence polarization-based biochemical high throughput dose response assay for activators of the Protein Kinase A-R2B (PKA-R2B) complex. [Related pubchem assays (depositor defined):AID504700, AID504704, AID504796, AID504797]
[2] = Fluorescence polarization-based biochemical high throughput dose response assay for activators of the Protein Kinase A-R1A (PKA-R1A) complex. [Related pubchem assays (depositor defined):AID504704, AID504707, AID504799, AID504800]
[3] = target: Dual specificity protein phosphatase 3 (Homo sapiens, UniProt P51452); test: SAR VHR1 Fluorescent Assay for In Vitro dose response studies Set 3. [Related pubchem assays (depositor defined):AID1654, AID1661, AID1878]; assay type: functional
Dual specificity protein phosphatase 3, sequence (P51452 whole entry): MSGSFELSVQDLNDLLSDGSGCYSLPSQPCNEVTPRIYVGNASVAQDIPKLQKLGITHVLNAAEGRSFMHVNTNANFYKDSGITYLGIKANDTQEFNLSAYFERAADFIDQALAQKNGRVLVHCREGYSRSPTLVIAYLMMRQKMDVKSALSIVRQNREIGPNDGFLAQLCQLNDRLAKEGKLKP

Insulin-degrading enzyme [4] = target: T1, Insulin-degrading enzyme (Homo sapiens, UniProt P14735); test: activators of endogenous IDE in HEK cells, dose response, cell-based, fluorescence polarization (AID 588439); assay type: functional
T1 sequence (P14735 whole entry): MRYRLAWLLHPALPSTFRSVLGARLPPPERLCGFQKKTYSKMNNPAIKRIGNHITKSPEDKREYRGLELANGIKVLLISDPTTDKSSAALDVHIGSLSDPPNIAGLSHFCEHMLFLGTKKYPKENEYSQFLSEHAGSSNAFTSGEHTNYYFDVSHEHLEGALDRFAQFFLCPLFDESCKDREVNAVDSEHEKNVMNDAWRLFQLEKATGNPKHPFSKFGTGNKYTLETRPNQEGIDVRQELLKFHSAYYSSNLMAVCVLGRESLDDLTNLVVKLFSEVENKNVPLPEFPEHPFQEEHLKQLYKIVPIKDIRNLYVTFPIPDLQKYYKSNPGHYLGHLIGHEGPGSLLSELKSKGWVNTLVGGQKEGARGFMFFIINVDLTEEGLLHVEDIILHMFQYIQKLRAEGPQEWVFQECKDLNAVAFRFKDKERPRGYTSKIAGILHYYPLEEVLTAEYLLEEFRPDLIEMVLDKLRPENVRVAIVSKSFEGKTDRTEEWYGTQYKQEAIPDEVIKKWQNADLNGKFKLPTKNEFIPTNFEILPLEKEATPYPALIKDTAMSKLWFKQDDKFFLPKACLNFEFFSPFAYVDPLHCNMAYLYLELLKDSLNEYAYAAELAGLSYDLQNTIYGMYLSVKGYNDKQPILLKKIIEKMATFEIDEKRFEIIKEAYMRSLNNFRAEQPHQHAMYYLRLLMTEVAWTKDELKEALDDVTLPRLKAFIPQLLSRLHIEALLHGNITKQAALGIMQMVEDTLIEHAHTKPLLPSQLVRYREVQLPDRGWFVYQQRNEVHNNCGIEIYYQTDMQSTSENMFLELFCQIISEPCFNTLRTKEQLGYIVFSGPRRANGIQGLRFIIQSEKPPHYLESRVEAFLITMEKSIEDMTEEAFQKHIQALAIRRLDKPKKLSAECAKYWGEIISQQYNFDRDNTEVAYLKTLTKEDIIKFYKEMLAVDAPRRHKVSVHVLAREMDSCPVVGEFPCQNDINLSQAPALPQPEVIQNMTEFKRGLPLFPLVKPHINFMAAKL

[5] = target: UDP-galactopyranose mutase (Mycobacterium tuberculosis, UniProt P9WIQ1); test: Inhibitors of Mycobacterium tuberculosis UDP-galactopyranose mutase (UGM) enzyme Measured in Biochemical System Using Plate Reader - 2105-02_Inhibitor_Dose_CherryPick_Activity. [Related pubchem assays (depositor defined):AID504439]
UDP-galactopyranose mutase, sequence (P9WIQ1 whole entry): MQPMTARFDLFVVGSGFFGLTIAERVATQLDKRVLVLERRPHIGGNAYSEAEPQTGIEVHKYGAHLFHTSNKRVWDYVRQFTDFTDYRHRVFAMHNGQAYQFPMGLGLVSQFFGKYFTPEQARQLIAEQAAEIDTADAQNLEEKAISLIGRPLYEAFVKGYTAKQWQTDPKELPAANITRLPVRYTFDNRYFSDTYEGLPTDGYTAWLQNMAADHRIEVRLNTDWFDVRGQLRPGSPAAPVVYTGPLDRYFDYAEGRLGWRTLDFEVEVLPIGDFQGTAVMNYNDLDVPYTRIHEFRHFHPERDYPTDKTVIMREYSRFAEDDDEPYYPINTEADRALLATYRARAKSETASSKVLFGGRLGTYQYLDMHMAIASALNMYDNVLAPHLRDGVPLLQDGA

ORF 73 = target: T2, ORF 73 (Human herpesvirus 8, UniProt O40947); test: inhibitors of C-LANA binding to LBS DNA, dose response, biochemical, fluorescence polarization, cherry-picked samples (AID 504725); parameters: species or system Human gammaherpesvirus 8;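 note: fluorescence polarization of a labeled DNA duplex reporting LANA DNA binding; potency is for inhibitors that block LANA binding to the DNA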
T2 sequence (O40947 whole entry): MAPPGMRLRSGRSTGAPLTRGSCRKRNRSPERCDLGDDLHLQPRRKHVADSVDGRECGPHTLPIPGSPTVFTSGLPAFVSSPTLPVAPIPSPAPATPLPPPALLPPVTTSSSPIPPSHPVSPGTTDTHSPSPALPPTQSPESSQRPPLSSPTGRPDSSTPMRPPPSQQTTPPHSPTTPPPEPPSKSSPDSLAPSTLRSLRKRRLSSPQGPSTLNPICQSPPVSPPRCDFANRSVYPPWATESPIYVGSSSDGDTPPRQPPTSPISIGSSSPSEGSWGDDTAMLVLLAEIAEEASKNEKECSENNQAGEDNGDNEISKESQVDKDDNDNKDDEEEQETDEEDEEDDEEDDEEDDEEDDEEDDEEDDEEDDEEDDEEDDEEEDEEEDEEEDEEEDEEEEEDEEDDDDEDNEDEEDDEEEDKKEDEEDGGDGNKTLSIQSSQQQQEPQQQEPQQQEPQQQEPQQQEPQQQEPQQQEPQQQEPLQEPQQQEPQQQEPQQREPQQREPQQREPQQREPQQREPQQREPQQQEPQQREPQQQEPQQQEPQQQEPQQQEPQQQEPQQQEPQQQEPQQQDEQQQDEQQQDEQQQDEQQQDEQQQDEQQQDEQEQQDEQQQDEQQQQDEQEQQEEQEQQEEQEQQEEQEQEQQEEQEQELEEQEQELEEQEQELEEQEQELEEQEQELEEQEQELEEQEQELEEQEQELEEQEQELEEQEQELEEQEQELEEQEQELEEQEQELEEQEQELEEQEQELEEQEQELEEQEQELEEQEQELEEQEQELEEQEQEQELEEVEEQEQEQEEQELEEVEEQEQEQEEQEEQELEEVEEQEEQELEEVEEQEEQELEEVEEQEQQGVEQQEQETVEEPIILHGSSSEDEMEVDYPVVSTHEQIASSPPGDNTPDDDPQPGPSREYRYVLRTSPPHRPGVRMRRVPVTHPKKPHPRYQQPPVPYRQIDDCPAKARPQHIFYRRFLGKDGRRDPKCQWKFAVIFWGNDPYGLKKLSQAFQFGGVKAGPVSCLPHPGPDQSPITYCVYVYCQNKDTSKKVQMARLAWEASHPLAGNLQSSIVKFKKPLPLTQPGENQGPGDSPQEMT

Fibrinogen beta chain [6] = target: T3, Fibrinogen beta chain (Homo sapiens, UniProt P02675); test: Fluorescence polarization-based biochemical high throughput dose response assay to identify inhibitors that disrupt the binding of a cyclic peptide (Tn6) to the fibrin proteolytic product D-Dimer and fragment E complex [DD(E )].
T3 sequence (P02675 whole entry, the tested form may be a part): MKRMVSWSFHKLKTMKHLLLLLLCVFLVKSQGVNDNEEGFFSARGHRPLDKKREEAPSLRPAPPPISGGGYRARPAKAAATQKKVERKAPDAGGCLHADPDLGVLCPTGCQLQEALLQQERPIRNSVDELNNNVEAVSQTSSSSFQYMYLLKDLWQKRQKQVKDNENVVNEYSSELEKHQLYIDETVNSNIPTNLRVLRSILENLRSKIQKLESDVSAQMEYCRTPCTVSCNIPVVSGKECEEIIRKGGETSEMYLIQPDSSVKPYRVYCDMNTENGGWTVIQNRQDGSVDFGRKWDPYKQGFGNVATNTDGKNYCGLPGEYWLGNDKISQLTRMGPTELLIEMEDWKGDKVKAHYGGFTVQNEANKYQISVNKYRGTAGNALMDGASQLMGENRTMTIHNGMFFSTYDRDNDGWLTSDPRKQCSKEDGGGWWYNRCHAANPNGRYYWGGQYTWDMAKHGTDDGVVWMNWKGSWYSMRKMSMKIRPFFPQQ

Fibrinogen beta chain [7] = target: T3, Fibrinogen beta chain; test: Fluorescence polarization-based biochemical high throughput dose response assay to identify inhibitors that disrupt the binding of a cyclic peptide (Tn7) to the fibrin proteolytic product D-Dimer and fragment E complex [DD(E )].
Troponin, cardiac muscle = Troponin, cardiac muscle (Homo sapiens, UniProt P19429+P45379+P63316); test: Fluorescence-based biochemical high throughput dose response assay for activators of the calcium sensitivity of cardiac Regulated Thin Filaments (RTF). [Related pubchem assays (depositor defined):AID493008, AID493018, AID504382, AID504383]; assay type: protein-complex assay
HEK293 [8] = test: optical interference in Abeta FP readout, dose response, artefact control for IDE activator project, biochemical, fluorescence polarization (AID 588442); assay type: functional, cell-based; conditions: Homo sapiens
Insulin-degrading enzyme [9] = target: T1, Insulin-degrading enzyme; test: activators of recombinant IDE enzyme, dose response, counter-screen for IDE activator project, biochemical, fluorescence polarization (AID 588681)
HEK293 [10] = test: HEK cell cytotoxicity by LDH release, dose response, cytotoxicity control for IDE activator project, fluorescence, HEK cells (AID 588440); assay type: functional, cell-based; conditions: Homo sapiens;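 note: cytotoxicity by LDH release measuring loss of membrane integrity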
Phospholipase A2 = Phospholipase A2 (Homo sapiens, UniProt P04054); assay type: functional;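 note: confirmatory dose-response counterscreen on phospholipase A2, testing hits that came from an ultra-high-throughput screen for ATG4B inhibitors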
Phospholipase A2, sequence (P04054 whole entry): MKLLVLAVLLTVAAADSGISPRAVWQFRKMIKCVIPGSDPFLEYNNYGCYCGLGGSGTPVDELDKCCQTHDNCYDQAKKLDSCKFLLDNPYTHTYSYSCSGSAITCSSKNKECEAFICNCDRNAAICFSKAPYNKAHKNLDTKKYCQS

[11] = tested on: Streptococcus sp. 'group A'; test: growth inhibition of control SK(-) GAS strain, dose response, counter-screen for streptokinase expression inhibitor project, luminescence, kanamycin, BacTiterGlo, confirmation (AID 1900); assay type: functional, organism-based
Cysteine protease ATG4B = Cysteine protease ATG4B (Homo sapiens, UniProt Q9Y4P1); assay type: functional;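 note: Fluorescence-based dose-response confirmation assay measuring inhibition of ATG4B activity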
Cysteine protease ATG4B, sequence (Q9Y4P1 whole entry): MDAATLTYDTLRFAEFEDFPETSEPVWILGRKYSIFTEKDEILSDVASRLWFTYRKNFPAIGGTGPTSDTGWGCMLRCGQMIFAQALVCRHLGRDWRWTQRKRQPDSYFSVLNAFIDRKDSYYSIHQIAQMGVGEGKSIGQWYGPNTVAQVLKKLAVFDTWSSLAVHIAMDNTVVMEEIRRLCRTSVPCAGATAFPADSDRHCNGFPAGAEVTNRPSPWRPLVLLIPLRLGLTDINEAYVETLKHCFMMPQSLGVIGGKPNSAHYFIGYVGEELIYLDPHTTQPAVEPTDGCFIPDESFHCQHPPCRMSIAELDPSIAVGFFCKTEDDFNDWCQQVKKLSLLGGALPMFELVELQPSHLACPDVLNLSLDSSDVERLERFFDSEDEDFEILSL

Streptococcus = test: Group A Streptococcus viability loss, dose response, counter-screen for streptokinase expression inhibitor project, luminescence, BacTiterGlo (AID 1915); assay type: functional, organism-based;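 note: potency for reduction of bacterial viability or growth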
Streptokinase A = target: T4, Streptokinase A (Streptococcus pyogenes serotype M1, UniProt P10520); test: S. pyogenes streptokinase expression inhibitors, potency, dose response, plasminogen activation absorbance, OD405 (AID 1914); assay type: functional, Streptococcus pyogenes M1 GAS;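 note: secreted streptokinase activity via plasminogen activation per viability signal from cell pellet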
T4 sequence (P10520 whole entry): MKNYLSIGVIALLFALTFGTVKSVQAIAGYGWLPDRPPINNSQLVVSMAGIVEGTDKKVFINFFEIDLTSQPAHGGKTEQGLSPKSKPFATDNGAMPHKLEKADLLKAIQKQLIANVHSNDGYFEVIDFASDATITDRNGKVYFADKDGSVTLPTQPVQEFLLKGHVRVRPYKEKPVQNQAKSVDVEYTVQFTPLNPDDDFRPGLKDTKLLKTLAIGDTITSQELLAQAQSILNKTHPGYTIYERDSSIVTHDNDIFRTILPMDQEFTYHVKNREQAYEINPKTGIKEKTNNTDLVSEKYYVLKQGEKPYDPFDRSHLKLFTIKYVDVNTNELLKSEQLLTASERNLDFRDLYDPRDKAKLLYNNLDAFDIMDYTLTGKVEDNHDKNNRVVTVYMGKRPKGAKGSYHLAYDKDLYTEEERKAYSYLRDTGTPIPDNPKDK

HEK293 [12] = test: cells; assay type: functional, cell-based; conditions: Homo sapiens
[13] = target: Nuclear receptor subfamily 0 group B member 1 (Homo sapiens, UniProt P51843); test: Luminescence-based cell-based high throughput dose response assay for inhibitors of the orphan nuclear receptor subfamily 0, group B, member 1 (DAX1; NR0B1). [Related pubchem assays (depositor defined):AID504766, AID504790]; assay type: functional
Nuclear receptor subfamily 0 group B member 1, sequence (P51843 whole entry): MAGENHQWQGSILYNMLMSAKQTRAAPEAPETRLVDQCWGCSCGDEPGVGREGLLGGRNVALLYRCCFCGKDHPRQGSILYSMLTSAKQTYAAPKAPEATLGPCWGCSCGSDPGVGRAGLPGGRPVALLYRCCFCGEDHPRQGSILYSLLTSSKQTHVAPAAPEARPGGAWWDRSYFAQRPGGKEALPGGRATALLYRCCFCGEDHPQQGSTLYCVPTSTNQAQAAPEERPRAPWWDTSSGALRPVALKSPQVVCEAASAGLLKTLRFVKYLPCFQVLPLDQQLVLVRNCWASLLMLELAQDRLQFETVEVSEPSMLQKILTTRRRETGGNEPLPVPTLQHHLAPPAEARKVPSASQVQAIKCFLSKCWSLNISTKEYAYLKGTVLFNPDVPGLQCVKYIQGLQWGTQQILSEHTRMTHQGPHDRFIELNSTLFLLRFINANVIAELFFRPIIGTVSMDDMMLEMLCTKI

NIH3T3 = test: cytotoxicity in NIH-3T3 fibroblasts, dose response, cytotoxicity control for antifungal drug resistance project, cell-based, Alamar Blue, fluconazole, dry powder (AID 488809); assay type: functional; conditions: Mus musculus
Candida albicans = test: growth inhibition of resistant C. albicans, dose response, CaCi-8, fluconazole, Alamar Blue, dry powder (AID 488807); assay type: functional, organism-based
[14] = target: T5, Endoribonuclease toxin MazF (Escherichia coli K-12, UniProt P0AE70); test: fluorescent RNA oligo signal without MazF, dose response, counter-screen for MazEF activator project, biochemical, fluorescence, single-stranded RNase substrate (AID 588502); assay type: functional
T5 sequence (P0AE70 whole entry): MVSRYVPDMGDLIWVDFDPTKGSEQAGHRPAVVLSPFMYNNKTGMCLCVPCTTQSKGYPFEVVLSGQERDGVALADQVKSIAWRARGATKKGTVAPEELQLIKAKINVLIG

[15] = target: T5, Endoribonuclease toxin MazF; test: MazF toxin RNase activators, dose response, biochemical, fluorescence, single-stranded RNA substrate, uHTS hits (AID 588481); assay type: functional
[16] = target: T5, Endoribonuclease toxin MazF; test: SAR analysis of small molecule activators of the MazEF TA System via a fluorescence-based single-stranded RNase assay counterscreen. [Related pubchem assays (depositor defined):AID504720, AID504743]; assay type: functional
[17] = target: T5, Endoribonuclease toxin MazF; test: MazF endoribonuclease activators, SAR follow-up, biochemical, fluorescence, single-stranded RNA substrate (AID 588603); assay type: functional
MEF = test: SAR analysis of small molecule cytotoxicity of MazEF TA System activators in embryonic fibroblast (MEF) cells. [Related pubchem assays (depositor defined):AID504720, AID504743]; assay type: functional; conditions: Mus musculus

Structure (SMILES): Nc1nc(O)c2nc(Br)n([C@@H]3O[C@@H]4COP(=O)(O)O[C@H]4[C@H]3O)c2n1
- EC50 [1]: 2.15 µM (active)
- EC50 [2]: 7.83 µM (active)

Structure (SMILES): COc1ccc(C(=O)Nc2cc(C)nn2-c2nc3ccccc3s2)cc1
- IC50 [3]: 36.3 µM (active)

Structure (SMILES): Oc1ccc2ccc3cccc[n+]3c2c1
- EC50 (Insulin-degrading enzyme [4]): > 54.7 µM (inactive)
- AC50 [5]: 3.84 µM (active)
- AC50 (ORF 73): 1.61 µM (active)
- IC50 (Fibrinogen beta chain [6]): > 83.3 µM (inactive)
- IC50 (Fibrinogen beta chain [7]): > 9.26 µM (active)
- EC50 (Troponin, cardiac muscle): 1.21 µM (active)
- EC50 (HEK293 [8]): > 54.7 µM (inactive)
- EC50 (Insulin-degrading enzyme [9]): > 54.7 µM (inactive)
- IC50 (HEK293 [10]): > 89.2 µM (inactive)

Structure (SMILES): COc1cc(/C=C2\S/C(=N\c3ccccc3)N(CCc3c[nH]c4ccccc34)C2=O)ccc1OC(C)C(=O)O (stereo unspecified)
- IC50 (Phospholipase A2): 5.47 µM (active)
- EC50 [11]: 0.943 µM (active)
- IC50 (Cysteine protease ATG4B): 8.13 µM (active)
- EC50 (Streptococcus): 11.5 µM (active)
- EC50 (Streptokinase A): 4.12 µM (active)

Structure (SMILES): COc1ccc(N2C(=O)C3C(c4ccc(OC)cc4O)NC(Cc4ccccc4)(C(=O)O)C3C2=O)cc1 (stereo unspecified)
- IC50 (HEK293 [12]): > 67.5 µM (inactive)
- IC50 [13]: > 67.5 µM (inactive)

Structure (SMILES): CC1CCN(C(=O)Cn2c3ccc(F)cc3c3nc4n(c(=O)c32)CCCS4)CC1
- AC50 (NIH3T3): 41.8 µM (active)
- AC50 (Candida albicans): 2.96 µM (active)

Structure (SMILES): CCN1C(C)=C(C)S/C1=C1\SC(=S)N(C2CCCCC2)C1=O
- EC50 [14]: > 99 µM (inactive)
- EC50 [15]: 29.1 µM (inactive)
- EC50 [16]: > 99 µM (inactive)
- EC50 [17]: 22.4 µM (inactive)
- CC50 (MEF): > 99 µM (inactive)
